According to US10821115B2, “Compounds that inhibit Mcl-1 protein” (priority 2017, dated 2020):
pIC50: −log10 of the molar value. Read-outs that look alike come from different tables or passages of the source.

Legend:
[1] = biological target: recombinant human Mcl-1 (residues 171-327) / Bim interaction (Homo sapiens (Human), UniProt Q07820); assay: biochemical; type: binding; conditions: read-out: Mcl-1 HTRF IC50
[2] = tested on: human multiple myeloma cell line, OPM-2; assay: Cell viability assay (OPM-2 10 FBS), CellTiter-Glo; type: cell-based
In short: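 Cells were seeded at 3000 cells/well in RPMI 1640 with 10% FBS and exposed to serially diluted compounds for 16 h at 37 °C, 5% CO2.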

[3] = 0.1 nM Mcl-1(171-327), 0.05 nM biotin-Bim (51-76)
[4] = Homo sapiens, OPM-2, 16 h, read-out: OPM-2 10% FBS IC50 IP, OPM-2 cells, 10% FBS, 16 h incubation
[5] = TR-FRET, Mcl-1(171-327) / biotin-Bim (51-76)
[6] = Homo sapiens, OPM-2, 16 h, read-out: OPM-2 10% FBS IC50 IP, OPM-2 cells, 10% FBS, 16 h, CellTiter-Glo
[7] = read-out: OPM-2 10% FBS IC50 IP, OPM-2 cells, 10% FBS, 16 h, CellTiter-Glo

Sequence of recombinant human Mcl-1 (residues 171-327) / Bim interaction (Q07820 171-327): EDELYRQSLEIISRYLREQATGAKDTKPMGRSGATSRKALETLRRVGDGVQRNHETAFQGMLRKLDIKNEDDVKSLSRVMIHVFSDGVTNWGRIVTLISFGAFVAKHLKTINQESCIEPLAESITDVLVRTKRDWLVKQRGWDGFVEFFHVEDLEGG

Compound | pIC50 [1, 3] | pIC50 [1, 5] | pIC50 [2, 6] | other results
CO[C@]1(CN2CCN(C3COC3)CC2)/C=C/[C@H](C)[C@H](C)CS(=O)(=O)NC(=O)c2ccc3c(c2)N(C[C@@H]2CC[C@H]21)C[C@@]1(CCCc2cc(Cl)ccc21)CO3 [Example 159, (1S,3′R,6′R,7′R,8′E,10′S,11′S)-6-chloro-7′-methoxy-10′,11′-dimethyl-7′-((4-(3-oxetanyl)-1-piperazinyl)methyl)-3,4-dihydro-2H,15′H-spiro[naphthalene-1,22′-[20]oxa[13]thia[1,14]diazatetracyclo [14.7.2.0~3,6~.0~19,24~]pentacosa[8,16,18,24]tetraen]-15′-one 13′,13′-dioxide] | 10.02 | – | – | pIC50 [2, 4]: 7.10
C[C@@H]1[C@@H](C)C/C=C/[C@](O)(CCO)[C@@H]2CC[C@H]2CN2C[C@@]3(CCCc4cc(Cl)ccc43)COc3ccc(cc32)C(=O)NS1(=O)=O [Example 100175, (1S,3′R,6′R,7′R,8′E,11′S,12′R)-6-chloro-7′-hydroxy-7′-(2-hydroxyethyl)-11′,12′-dimethyl-3,4-dihydro-2H,15′H-spiro[naphthalene-1,22′-[20]oxa[13]thia[1,14]diazatetracyclo [14.7.2.0~3,6~.0~19,24~]pentacosa[8,16,18,24]tetraen]-15′-one 13′,13′-dioxide] | – | 9.83 | 6.34 | –
CO[C@]1(c2ncccn2)CCC[C@H](C)[C@@H](C)S(=O)(=O)NC(=O)c2ccc3c(c2)N(C[C@@H]2CC[C@H]21)C[C@@]1(CCCc2cc(Cl)ccc21)CO3 [Example 100276, (1S,3′R,6′R,7′R,11′S,12′R)-6-chloro-7′-methoxy-11′,12′-dimethyl-7′-(2-pyrimidinyl)-3,4-dihydro-2H,15′H-spiro[naphthalene-1,22′-[20]oxa[13]thia[1,14]diazatetracyclo [14.7.2.0~3,6~.0~19,24~]pentacosa[16,18,24]trien]-15′-one 13′,13′-dioxide] | – | 9.49 | 5.82 | –
CO[C@@]1(CN2CCc3ncsc3C2)/C=C/C[C@H](C)[C@@H](C)S(=O)(=O)NC(=O)c2ccc3c(c2)N(C[C@@H]2CC[C@H]21)C[C@@]1(CCCc2cc(Cl)ccc21)CO3 [Example 209] | 9.26 | – | – | pIC50 [2, 4]: 6.36
C[C@@H]1[C@@H](C)C/C=C/[C@]2(CN3CCN(C)C[C@@H]3CO2)[C@@H]2CC[C@H]2CN2C[C@@]3(CCCc4cc(Cl)ccc43)COc3ccc(cc32)C(=O)NS1(=O)=O (single isomer, unassigned) [Example 132] | 9.21 | – | – | pIC50 ([2]; read-out: OPM-2 10% FBS IC50 IP, OPM-2 cells, 10% FBS, 16 h incubation): 6.58
C=CCC[C@@]1(O)/C=C/C[C@H](C)[C@@H](C)S(=O)(=O)NC(=O)c2ccc3c(c2)N(C[C@@H]2CC[C@H]21)C[C@@]1(CCCc2cc(Cl)ccc21)CO3 [Example 100158, (1S,3′R,6′R,7′R,8′E,11′S,12′R)-7′-(3-buten-1-yl)-6-chloro-7′-hydroxy-11′,12′-dimethyl-3,4-dihydro-2H,15′H-spiro[naphthalene-1,22′-[20]oxa[13]thia[1,14]diazatetracyclo [14.7.2.0~3,6~.0~19,24~]pentacosa[8,16,18,24]tetraen]-15′-one 13′,13′-dioxide] | – | 9.53 | – | pIC50 [2, 7]: 6.59
COCCC[C@]1(O)/C=C/C[C@H](C)[C@@H](C)S(=O)(=O)NC(=O)c2ccc3c(c2)N(C[C@@H]2CC[C@H]21)C[C@@]1(CCCc2cc(Cl)ccc21)CO3 [Example 100160, (1S,3′R,6′R,7′S,8′E,11′S,12′R)-6-chloro-7′-hydroxy-7′-(3-methoxypropyl)-11′,12′-dimethyl-3,4-dihydro-2H,15′H-spiro[naphthalene-1,22′-[20]oxa[13]thia[1,14]diazatetracyclo [14.7.2.0~3,6~.0~19,24~]pentacosa[8,16,18,24]tetraen]-15′-one 13′,13′-dioxide] | – | 9.77 | 7.11 | –
CCCO[C@]1(CN2CCN(C(C)C)[C@H](C)C2)/C=C/C[C@H](C)[C@@H](C)S(=O)(=O)NC(=O)c2ccc3c(c2)N(C[C@@H]2CC[C@H]21)C[C@@]1(CCCc2cc(Cl)ccc21)CO3 [Example 368, (1S,3′R,6′R,7′R,8′E,11′S,12′R)-6-chloro-11′,12′-dimethyl-7′-(((3R)-3-methyl-4-(2-propanyl)-1-piperazinyl)methyl)-7′-propoxy-3,4-dihydro-2H,15′H-spiro[naphthalene-1,22′-[20]oxa[13]thia[1,14]diazatetracyclo [14.7.2.0~3,6~.0~19,24~]pentacosa[8,16,18,24]tetraen]-15′-one 13′,13′-dioxide] | 10.16 | – | – | pIC50 [2, 4]: 7.17
C[C@@H]1[C@@H](C)C/C=C/[C@@](O)(COCCN2CCOCC2)[C@@H]2CC[C@H]2CN2C[C@@]3(CCCc4cc(Cl)ccc43)COc3ccc(cc32)C(=O)NS1(=O)=O [Example 100355, (1S,3′R,6′R,7′S,8′E,11′S,12′R)-6-chloro-7′-hydroxy-11′,12′-dimethyl-7′-((2-(4-morpholinyl)ethoxy)methyl)-3,4-dihydro-2H,15′H-spiro[naphthalene-1,22′-[20]oxa[13]thia[1,14]diazatetracyclo [14.7.2.0~3,6~.0~19,24~]pentacosa[8,16,18,24]tetraen]-15′-one 13′,13′-dioxide] | – | 9.27 | 6.11 | –
C[C@@H]1[C@@H](C)C/C=C/[C@](O)(Cc2nccs2)[C@@H]2CC[C@H]2CN2C[C@@]3(CCCc4cc(Cl)ccc43)COc3ccc(cc32)C(=O)NS1(=O)=O [Example 100246, (1S,3′R,6′R,7′R,8′E,11′S,12′R)-6-chloro-7′-hydroxy-11′,12′-dimethyl-7′-(1,3-thiazol-2-ylmethyl)-3,4-dihydro-2H,15′H-spiro[naphthalene-1,22′-[20]oxa[13]thia[1,14]diazatetracyclo [14.7.2.0~3,6~.0~19,24~]pentacosa[8,16,18,24]tetraen]-15′-one 13′,13′-dioxide] | – | – | – | pIC50 [1]: 9.49; pIC50 [2, 7]: 6.94
CO[C@@]1(CN2CCC3(CCOC3)CC2)/C=C/C[C@H](C)[C@@H](C)S(=O)(=O)NC(=O)c2ccc3c(c2)N(C[C@@H]2CC[C@H]21)C[C@@]1(CCCc2cc(Cl)ccc21)CO3 [Example 265, (1S,3′R,6′R,7′S,8′E,11′S,12′R)-6-chloro-7′-methoxy-11′,12′-dimethyl-7′-(2-oxa-8-azaspiro[4.5]dec-8-ylmethyl)-3,4-dihydro-2H,15′H-spiro[naphthalene-1,22′-[20]oxa[13]thia[1,14]diazatetracyclo [14.7.2.0~3,6~.0~19,24~]pentacosa[8,16,18,24]tetraen]-15′-one 13′,13′-dioxide] | 9.37 | – | – | pIC50 [2, 4]: 6.24
COC(OC)c1cncc([C@]2(OC)/C=C/C[C@H](C)[C@@H](C)S(=O)(=O)NC(=O)c3ccc4c(c3)N(C[C@@H]3CC[C@H]32)C[C@@]2(CCCc3cc(Cl)ccc32)CO4)c1 (single isomer, unassigned) [Example 100514] | – | 10.06 | 6.64 | –
C[C@@H]1[C@@H](C)C/C=C/[C@@](O)(c2nccn2C)[C@@H]2CC[C@H]2CN2C[C@@]3(CCCc4cc(Cl)ccc43)COc3ccc(cc32)C(=O)NS1(=O)=O [Example 100199, (1S,3′R,6′R,7′S,8′E,11′S,12′R)-6-chloro-7′-hydroxy-11′,12′-dimethyl-7′-(1-methyl-1H-imidazol-2-yl)-3,4-dihydro-2H,15′H-spiro[naphthalene-1,22′-[20]oxa[13]thia[1,14]diazatetracyclo [14.7.2.0~3,6~.0~19,24~]pentacosa[8,16,18,24]tetraen]-15′-one 13′,13′-dioxide] | – | 9.78 | 6.83 | –
COCC[C@]1(OC)/C=C/C[C@H](C)[C@@H](C)S(=O)(=O)NC(=O)c2ccc3c(c2)N(C[C@@H]2CC[C@H]21)C[C@@]1(CCCc2cc(Cl)ccc21)CO3 [Example 100369, (1S,3′R,6′R,7′S,8′E,11′S,12′R)-6-chloro-7′-methoxy-7′-(2-methoxyethyl)-11′,12′-dimethyl-3,4-dihydro-2H,15′H-spiro[naphthalene-1,22′-[20]oxa[13]thia[1,14]diazatetracyclo [14.7.2.0~3,6~.0~19,24~]pentacosa[8,16,18,24]tetraen]-15′-one 13′,13′-dioxide] | – | 8.55 | 5.00 | –
CO[C@@]1(CC(=O)c2ccccc2)/C=C/C[C@H](C)[C@@H](C)S(=O)(=O)NC(=O)c2ccc3c(c2)N(C[C@@H]2CC[C@H]21)C[C@@]1(CCCc2cc(Cl)ccc21)CO3 [Example 100458, (1S,3′R,6′R,7′S,8′E,11′S,12′R)-6-chloro-7′-methoxy-11′,12′-dimethyl-7′-(2-oxo-2-phenylethyl)-3,4-dihydro-2H,15′H-spiro[naphthalene-1,22′-[20]oxa[13]thia[1,14]diazatetracyclo [14.7.2.0~3,6~.0~19,24~]pentacosa[8,16,18,24]tetraen]-15′-one 13′,13′-dioxide] | – | 9.68 | 6.38 | –
C[C@@H]1[C@@H](C)C/C=C/[C@](O)(C#CCC2CCOCC2)[C@@H]2CC[C@H]2CN2C[C@@]3(CCCc4cc(Cl)ccc43)COc3ccc(cc32)C(=O)NS1(=O)=O [Example 100433, (1S,3′R,6′R,7′R,8′E,11′S,12′R)-6-chloro-7′-hydroxy-11′,12′-dimethyl-7′-(3-(tetrahydro-2H-pyran-4-yl)-1-propyn-1-yl)-3,4-dihydro-2H,15′H-spiro[naphthalene-1,22′-[20]oxa[13]thia[1,14]diazatetracyclo [14.7.2.0~3,6~.0~19,24~]pentacosa[8,16,18,24]tetraen]-15′-one 13′,13′-dioxide] | – | 10.59 | 6.53 | –
